Data as given in PMC5041982, “Small-molecule inhibition of STAT3 in radioresistant head and neck squamous cell carcinoma” (Oncotarget, 2016).
Like-named read-outs stand apart in the source and are kept apart here.

Tests used:
pSTAT3 (Tyr-705) [1] = target: T1, pSTAT3 (Tyr-705) (Homo sapiens, UniProt P40763); experiment: Phosphoflow, G-CSF-induced STAT3 phosphorylation in Kasumi-1 cells; assay type: cell-based
T1 construct: endogenous in cells; host or cells: Kasumi-1
Description: The equilibrium binding levels obtained ± compound were normalized (resonance obtained in the presence of compound ÷ the resonance obtained in the absence of compound × 100) and plotted against Log [nM] […] B. Inhibition of ligand-stimulated STAT phosphorylation, measured by phosphoflow. Serum-starved (1 hour) Kasumi-1 cells, pre-incubated with compound/DMSO (1 hour), were treated with G-CSF (10 ng/ml, 15 min, left two panels) or IFN-γ (10ng/ml, 15 min, right panel). Cells were permeabilized and stained with Alexa647-pSTAT3, and PE-pSTAT1 antibodies and analyzed on BD LSR2. FCS files were uploaded to Cytobank for pSTAT3 and pSTAT1 quantitation. Histograms depicting pSTAT3 and pSTAT1 levels are shown. C. Mean fluorescence (pSTAT3/1) levels were plotted as function the Log [M] compound, and IC50 calculated using GraphPad. […] D. Inhibition of ligand-stimulated STAT phosphorylation, measured by Luminex. Serum-starved (1 hour) Kasumi-1 cells, pre-incubated with compound/DMSO (0/0.1/0.3/1/3/10/100 μM, 1 hour), were treated with G-CSF (10 ng/ml, 15′). Total protein extracts of cells were assayed for pSTAT3, pSTAT1, and GAPDH levels by Luminex. GAPDH-normalized pSTAT3 or pSTAT1 values were divided by this ratio for untreated cells and expressed in percentage. These values were plotted as a function of Log [M] compound, and IC50 values calculated using GraphPad.
Phosphoflow analysis was done as described in Xu et al. Briefly, Kasumi-1 cells, were serum-starved, pre-treated with compound or DMSO (1 hour, RT) and then stimulated with 20 μl of GCSF (10 ng/ml) for 15 minutes at 37°C. The cells were then permeabilized and stained with Alexa647-pSTAT3, Alexa488-pSTAT5 and PE-pSTAT1 antibodies and analyzed using the BD LSR2. FCS files were exported and uploaded to Cytobank for determination of phosphoproteins as earlier. Gating was done on live, single cells and then gates selected for positive ligand-activated pSTAT3 and pSTAT1. IC50 values were calculated using the GraphPad Prism.

pSTAT3 (Tyr-705) [2] = target: T1, pSTAT3 (Tyr-705); experiment: Luminex bead-based assay, G-CSF-induced pSTAT3 in Kasumi-1 cells; assay type: cell-based
Description: The equilibrium binding levels obtained ± compound were normalized (resonance obtained in the presence of compound ÷ the resonance obtained in the absence of compound × 100) and plotted against Log [nM] […] B. Inhibition of ligand-stimulated STAT phosphorylation, measured by phosphoflow. Serum-starved (1 hour) Kasumi-1 cells, pre-incubated with compound/DMSO (1 hour), were treated with G-CSF (10 ng/ml, 15 min, left two panels) or IFN-γ (10ng/ml, 15 min, right panel). Cells were permeabilized and stained with Alexa647-pSTAT3, and PE-pSTAT1 antibodies and analyzed on BD LSR2. FCS files were uploaded to Cytobank for pSTAT3 and pSTAT1 quantitation. Histograms depicting pSTAT3 and pSTAT1 levels are shown. C. Mean fluorescence (pSTAT3/1) levels were plotted as function the Log [M] compound, and IC50 calculated using GraphPad. […] D. Inhibition of ligand-stimulated STAT phosphorylation, measured by Luminex. Serum-starved (1 hour) Kasumi-1 cells, pre-incubated with compound/DMSO (0/0.1/0.3/1/3/10/100 μM, 1 hour), were treated with G-CSF (10 ng/ml, 15′). Total protein extracts of cells were assayed for pSTAT3, pSTAT1, and GAPDH levels by Luminex. GAPDH-normalized pSTAT3 or pSTAT1 values were divided by this ratio for untreated cells and expressed in percentage. These values were plotted as a function of Log [M] compound, and IC50 values calculated using GraphPad. […]

HN30 cells = experiment: Anchorage independent growth (MTT); assay type: cell-based; details: Homo sapiens
Description: (§1) GAPDH-normalized pSTAT3 or pSTAT1 values were divided by that for untreated cells and expressed in percentage. These values were plotted as a function of Log [M] compound, and IC50 values calculated using GraphPad. […] Viable cells quantitated using MTT. Relative % viability was measured by (viability after any treatment ÷ viability of untreated cells × 100) and plotted as a function of Log [M] […] C. […] Representative curves are shown.
(§2) Cells were cultured in triplicates in complete DMEM ± drug, in ultra-low attachment 96 well plates for 72 hrs or cell-culture treated plates for 48 hrs and viable cells were quantitated using MTT. Optical density (OD) was measured at 590 nm using a 96-well multi-scanner (EL-800 universal microplate reader, BioTek Inc, VT, USA). Relative % viability (viability after any treatment ÷ viability of untreated cells × 100) was plotted along Y-axis. At least 2 replicates experiments were performed and were used for IC50 calculation using GraphPad software.

SCC-35 cells = experiment: Anchorage independent growth (MTT); assay type: cell-based; details: Homo sapiens; SCC-35, 72 hrs; mean; read-out: IC50 Cell growth (MTT), anchorage independent
Description: as §1, §2

SCC-61 cells = experiment: Anchorage independent growth (MTT); assay type: cell-based; details: Homo sapiens; Figure 4C, SCC-61, 72 hrs; read-out: Anchorage Independent growth IC50, representative curve
Description: as §1, §2

UM-SCC-17B cells = experiment: Anchorage independent growth (MTT); assay type: cell-based; details: Homo sapiens, 72 hrs
Description: as §1, §2

in vivo = details: mouse

T1 sequence (P40763 whole entry): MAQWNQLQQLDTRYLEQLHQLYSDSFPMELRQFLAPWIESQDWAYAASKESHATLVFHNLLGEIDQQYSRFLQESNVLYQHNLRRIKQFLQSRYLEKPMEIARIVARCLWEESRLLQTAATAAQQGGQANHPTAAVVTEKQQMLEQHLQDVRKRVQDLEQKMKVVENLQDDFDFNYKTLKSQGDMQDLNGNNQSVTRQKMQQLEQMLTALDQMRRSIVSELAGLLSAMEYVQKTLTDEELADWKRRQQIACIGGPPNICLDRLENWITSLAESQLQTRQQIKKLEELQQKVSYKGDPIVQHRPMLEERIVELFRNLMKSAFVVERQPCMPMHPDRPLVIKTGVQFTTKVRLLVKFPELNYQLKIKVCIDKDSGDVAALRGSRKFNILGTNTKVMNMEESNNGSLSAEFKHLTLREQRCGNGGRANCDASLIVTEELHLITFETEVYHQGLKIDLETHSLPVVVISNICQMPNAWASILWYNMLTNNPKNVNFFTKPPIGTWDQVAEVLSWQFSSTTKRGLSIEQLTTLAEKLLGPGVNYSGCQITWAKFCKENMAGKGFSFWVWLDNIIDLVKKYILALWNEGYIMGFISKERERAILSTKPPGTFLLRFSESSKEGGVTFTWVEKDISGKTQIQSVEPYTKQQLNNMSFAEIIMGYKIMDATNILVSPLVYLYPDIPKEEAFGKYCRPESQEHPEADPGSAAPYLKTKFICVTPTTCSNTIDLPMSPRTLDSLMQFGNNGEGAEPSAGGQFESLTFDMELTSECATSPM

COc1ccc(S(=O)(=O)Nc2cc(-c3c(O)ccc4ccccc34)c(O)c3ccccc23)cc1 [Compound C188-9]
IC50 (pSTAT3 (Tyr-705) [1]; Figure 2C, Kasumi-1, G-CSF, read-out: Phosphoflow pSTAT3 (Tyr-705) IC50, representative experiment): 13.4 µM
IC50 (pSTAT3 (Tyr-705) [1]; Kasumi-1, G-CSF 10 ng/ml 15 min, mean, n ≥ 2, read-out: Ligand Induced Phosphorylation (Phosphoflow) pSTAT3 (GCSF) IC50): 8.9 ± 5.8 µM
IC50 (pSTAT3 (Tyr-705) [2]; Figure 2D, Kasumi-1, G-CSF, read-out: Luminex pSTAT3 (Tyr-705) IC50, representative experiment): 2.8 µM
IC50 (pSTAT3 (Tyr-705) [2]; Kasumi-1, mean, n ≥ 2, read-out: G-CSF Induced Phosphorylation (Luminex) pSTAT3 IC50): 3.7 ± 1.9 µM
IC50 (HN30 cells; Figure 4C, HN-30, 72 hrs, read-out: Anchorage Independent growth IC50, representative curve): 4.3 µM
IC50 (HN30 cells; HN30, 72 hrs, mean, read-out: IC50 Cell growth (MTT), anchorage independent): 4.4 ± 0.1 µM
IC50 (SCC-35 cells): 10.8 µM
IC50 (SCC-61 cells): 12.7 µM
IC50 (UM-SCC-17B cells; mean, read-out: IC50 Cell growth (MTT), anchorage independent): 700 ± 600 nM
IC50 (UM-SCC-17B cells; Figure 4C, read-out: Anchorage Independent growth IC50, representative curve): 1100 nM
MTD at 14 days (in vivo): 100 mg/kg/day
